Test systems include M19-MEL melanoma; HOP-18 NSCLC; P388/ADR leukemia; KM20L2 colon; DLD-1 colon; XF 498 CNS; SN12K1 renal; SNB-78 CNS; DMS 114 small cell lung; DMS 273 small cell lung; P388 leukemia; 786-0 renal; HS 578T breast; T-47D breast.
Common to all, as to experiment: NCI tumour cell line growth inhibition, 48 h

Drawing on PubChem BioAssay (NCI), this text covers TGI for 5 molecules.

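Briefly, cells in 96-well plates were exposed to five compound concentrations for 48 h, and endpoints were estimated by linear interpolation. TGI: total growth inhibition.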

Turning to `CCCCCCCCCCCCCCCCOCC(COP(=O)([O-])OCC[N+](C)(C)C)OCCCCCCCCCCCCCCCC` (stereo not drawn), the TGI in the test on M19-MEL melanoma, with HOP-18 NSCLC, in the test on P388/ADR leukemia, with KM20L2 colon, with DLD-1 colon and in the test with XF 498 CNS was greater than 100 µM each time. Also, the TGI in the test with SN12K1 renal, with SNB-78 CNS, with DMS 114 small cell lung, with DMS 273 small cell lung and in the test with P388 leukemia was greater than 100 µM each time.

`COc1cc2c3c(n(CCCNCCCNCCCn4c5c(c6ccccc6c4=O)C(=O)c4ccccc4-5)c(=O)c2cc1OC)-c1cc2c(cc1C3=O)OCO2` gave a TGI in the test with 786-0 renal of 1.07 µM.

Take `CC(C)[C@](O)(C(=O)OCC1CC[N+]2([O-])CC[C@@H](O)C12)[C@H](C)O` (stereo partly drawn): the TGI in the test on M19-MEL melanoma, with HOP-18 NSCLC, in the test on P388/ADR leukemia, in the test on KM20L2 colon, with DLD-1 colon and with XF 498 CNS was greater than 375 µM in each case. The TGI in the test on SN12K1 renal, in the test on SNB-78 CNS, in the test on DMS 114 small cell lung, in the test with DMS 273 small cell lung and in the test with P388 leukemia was greater than 375 µM in each case.

For `CC(C)(C)C(=O)C(C(c1ccccc1)N1CCOCC1)N1CCOCC1` (stereo not drawn), the TGI with 786-0 renal, in the test with HS 578T breast and in the test with T-47D breast was greater than 100 µM each time.

As for `COc1ccc(N2C(=O)C3c4[nH]c5cccc(C)c5c4C4CCC(C(C)(C)C)CC4C3C2=O)cc1` (stereo not drawn), the TGI in the test with HS 578T breast and with T-47D breast was greater than 10 µM throughout.
